Experiment [1] has as its target Proto-oncogene tyrosine-protein kinase Src (Homo sapiens, UniProt P12931). Nature of the experiment: Selectivity interaction (ProQinase) EUB0000171b SRC.
In experiment [2] the test system is T1, Receptor-type tyrosine-protein kinase FLT3 (Homo sapiens), P36888 [D835H].
T1 sequence (whole entry): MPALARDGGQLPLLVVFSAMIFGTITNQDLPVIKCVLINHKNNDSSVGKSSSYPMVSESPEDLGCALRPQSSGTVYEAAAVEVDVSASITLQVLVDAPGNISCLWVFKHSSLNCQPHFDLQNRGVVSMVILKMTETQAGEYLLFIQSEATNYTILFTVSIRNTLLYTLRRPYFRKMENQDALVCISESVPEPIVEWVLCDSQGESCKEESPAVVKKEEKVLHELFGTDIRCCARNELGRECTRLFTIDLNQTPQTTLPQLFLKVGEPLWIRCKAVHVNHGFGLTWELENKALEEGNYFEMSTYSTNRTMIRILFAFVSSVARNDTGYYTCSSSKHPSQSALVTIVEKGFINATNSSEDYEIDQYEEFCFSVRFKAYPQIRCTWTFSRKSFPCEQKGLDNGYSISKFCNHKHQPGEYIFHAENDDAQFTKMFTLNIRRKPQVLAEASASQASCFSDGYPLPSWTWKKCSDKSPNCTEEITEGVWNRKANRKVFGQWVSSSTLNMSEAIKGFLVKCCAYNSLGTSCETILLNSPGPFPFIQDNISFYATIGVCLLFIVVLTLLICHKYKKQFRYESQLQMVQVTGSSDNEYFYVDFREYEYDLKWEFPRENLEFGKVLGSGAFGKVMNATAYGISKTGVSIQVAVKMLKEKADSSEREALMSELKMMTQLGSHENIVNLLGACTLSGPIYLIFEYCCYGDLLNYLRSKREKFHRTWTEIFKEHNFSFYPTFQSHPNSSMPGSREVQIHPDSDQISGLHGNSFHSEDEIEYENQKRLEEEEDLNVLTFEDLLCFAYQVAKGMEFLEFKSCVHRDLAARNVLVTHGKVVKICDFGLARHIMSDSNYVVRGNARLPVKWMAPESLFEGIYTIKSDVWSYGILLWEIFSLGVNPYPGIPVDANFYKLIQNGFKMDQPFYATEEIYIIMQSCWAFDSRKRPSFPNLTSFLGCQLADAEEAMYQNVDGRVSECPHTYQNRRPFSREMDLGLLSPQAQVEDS
To be noted: at 10 µM.

The target of experiment [3] is Casein kinase II subunit alpha (Homo sapiens, UniProt P68400). Nature of the experiment: Selectivity interaction (Ambit KINOMEscan and KiNATiv profiling in Jurkat cells) EUB0000090b CSNK2A1. The format is cell-based. To be noted: at 1 µM.
Casein kinase II subunit alpha, sequence (P68400 whole entry, looked up): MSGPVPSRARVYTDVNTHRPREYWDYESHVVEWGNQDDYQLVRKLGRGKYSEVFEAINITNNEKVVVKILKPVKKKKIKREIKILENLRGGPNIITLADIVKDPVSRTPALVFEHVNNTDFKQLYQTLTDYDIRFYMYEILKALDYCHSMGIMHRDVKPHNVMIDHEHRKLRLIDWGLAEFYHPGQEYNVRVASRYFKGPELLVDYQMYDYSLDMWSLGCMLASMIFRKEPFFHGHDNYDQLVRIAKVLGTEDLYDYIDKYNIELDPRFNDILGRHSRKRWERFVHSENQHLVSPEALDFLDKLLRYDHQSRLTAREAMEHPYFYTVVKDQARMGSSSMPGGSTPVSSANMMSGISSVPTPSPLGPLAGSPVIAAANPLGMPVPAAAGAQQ
In experiment [4] the target is Ribosomal protein S6 kinase alpha-1 (Homo sapiens, UniProt Q15418). Put plainly: Selectivity interaction (KinomeScan (DiscoverX)) EUB0000092b RPS6KA1. To be noted: at 10 µM.
Ribosomal protein S6 kinase alpha-1, sequence (Q15418 whole entry): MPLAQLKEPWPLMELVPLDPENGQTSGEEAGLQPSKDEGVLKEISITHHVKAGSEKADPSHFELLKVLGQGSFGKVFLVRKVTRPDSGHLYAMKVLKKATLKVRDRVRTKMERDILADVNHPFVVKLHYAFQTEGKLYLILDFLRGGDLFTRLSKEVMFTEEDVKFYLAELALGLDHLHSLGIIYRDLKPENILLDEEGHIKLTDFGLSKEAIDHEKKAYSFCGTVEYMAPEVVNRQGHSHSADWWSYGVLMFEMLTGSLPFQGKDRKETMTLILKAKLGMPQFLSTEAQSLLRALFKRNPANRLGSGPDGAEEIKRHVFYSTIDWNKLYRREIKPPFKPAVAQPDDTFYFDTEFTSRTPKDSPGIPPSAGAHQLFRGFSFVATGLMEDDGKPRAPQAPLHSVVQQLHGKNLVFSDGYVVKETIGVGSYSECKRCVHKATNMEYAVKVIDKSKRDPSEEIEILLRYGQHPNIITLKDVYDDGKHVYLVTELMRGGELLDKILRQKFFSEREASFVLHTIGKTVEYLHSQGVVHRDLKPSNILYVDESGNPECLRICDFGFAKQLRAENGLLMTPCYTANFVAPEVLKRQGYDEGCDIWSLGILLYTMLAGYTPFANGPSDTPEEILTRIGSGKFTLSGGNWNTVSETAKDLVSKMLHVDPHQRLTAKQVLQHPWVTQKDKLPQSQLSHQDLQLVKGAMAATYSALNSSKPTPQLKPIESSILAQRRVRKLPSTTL
Experiment [5] concerns the target Thyrotropin-releasing hormone receptor (Homo sapiens) (UniProt P34981). Put plainly: Selectivity interaction (Eurofins CEREP Diversity Profile (receptors and ion channels)) EUB0000279b TRH. To be noted: at 10 µM.
Experiment [6] deals with T2, Tyrosine-protein kinase Tec (Homo sapiens) (UniProt P42680).
T2 sequence (whole entry): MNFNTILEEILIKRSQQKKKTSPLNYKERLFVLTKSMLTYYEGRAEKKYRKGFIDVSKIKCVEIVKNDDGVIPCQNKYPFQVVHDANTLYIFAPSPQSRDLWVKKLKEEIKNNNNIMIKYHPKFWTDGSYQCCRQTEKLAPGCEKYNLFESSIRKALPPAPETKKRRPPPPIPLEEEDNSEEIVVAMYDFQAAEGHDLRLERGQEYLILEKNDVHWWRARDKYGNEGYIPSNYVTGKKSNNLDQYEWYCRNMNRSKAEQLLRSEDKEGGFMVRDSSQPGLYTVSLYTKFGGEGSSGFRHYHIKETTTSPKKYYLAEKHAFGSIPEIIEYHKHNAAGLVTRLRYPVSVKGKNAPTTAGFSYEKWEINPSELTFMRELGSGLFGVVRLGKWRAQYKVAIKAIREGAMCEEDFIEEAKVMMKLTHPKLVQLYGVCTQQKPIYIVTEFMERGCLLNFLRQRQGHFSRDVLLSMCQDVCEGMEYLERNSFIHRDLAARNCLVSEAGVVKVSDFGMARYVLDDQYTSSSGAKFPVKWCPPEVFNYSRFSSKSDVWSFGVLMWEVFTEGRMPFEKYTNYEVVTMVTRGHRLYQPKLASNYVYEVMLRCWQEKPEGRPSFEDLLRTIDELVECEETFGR
Put plainly: Selectivity interaction (KinomeScan (DiscoverX)) EUB0000045b TEC.

Experiment [7] deals with Ribosomal protein S6 kinase alpha-2 (Homo sapiens) (UniProt Q15349). Put plainly: Selectivity interaction (SelectScreen profiling (Invitrogen)) EUB0000607a RPS6KA2. The conditions noted are these: at 2 µM.
Ribosomal protein S6 kinase alpha-2 (Homo sapiens), sequence (Q15349 whole entry): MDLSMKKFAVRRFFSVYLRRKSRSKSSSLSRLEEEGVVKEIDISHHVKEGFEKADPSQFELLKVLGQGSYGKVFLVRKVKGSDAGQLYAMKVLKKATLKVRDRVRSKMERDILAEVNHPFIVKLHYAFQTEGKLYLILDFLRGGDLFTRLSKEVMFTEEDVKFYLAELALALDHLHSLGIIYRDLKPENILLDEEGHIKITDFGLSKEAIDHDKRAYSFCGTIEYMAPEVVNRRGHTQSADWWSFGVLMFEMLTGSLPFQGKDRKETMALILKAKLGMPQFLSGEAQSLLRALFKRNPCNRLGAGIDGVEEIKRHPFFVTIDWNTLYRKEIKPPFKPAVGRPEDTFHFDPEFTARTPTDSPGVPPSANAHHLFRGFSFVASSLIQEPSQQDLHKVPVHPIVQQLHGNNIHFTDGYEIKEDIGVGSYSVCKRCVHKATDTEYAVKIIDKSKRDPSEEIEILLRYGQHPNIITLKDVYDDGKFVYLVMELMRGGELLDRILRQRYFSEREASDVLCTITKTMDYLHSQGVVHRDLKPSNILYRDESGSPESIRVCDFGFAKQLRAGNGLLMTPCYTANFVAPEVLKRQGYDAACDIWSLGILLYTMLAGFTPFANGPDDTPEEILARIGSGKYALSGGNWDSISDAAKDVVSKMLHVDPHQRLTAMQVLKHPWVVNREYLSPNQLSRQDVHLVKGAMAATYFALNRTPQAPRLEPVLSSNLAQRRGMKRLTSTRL
Experiment [8] deals with T3, Ephrin type-B receptor 1 (Homo sapiens) (UniProt P54762).
T3 sequence (whole entry): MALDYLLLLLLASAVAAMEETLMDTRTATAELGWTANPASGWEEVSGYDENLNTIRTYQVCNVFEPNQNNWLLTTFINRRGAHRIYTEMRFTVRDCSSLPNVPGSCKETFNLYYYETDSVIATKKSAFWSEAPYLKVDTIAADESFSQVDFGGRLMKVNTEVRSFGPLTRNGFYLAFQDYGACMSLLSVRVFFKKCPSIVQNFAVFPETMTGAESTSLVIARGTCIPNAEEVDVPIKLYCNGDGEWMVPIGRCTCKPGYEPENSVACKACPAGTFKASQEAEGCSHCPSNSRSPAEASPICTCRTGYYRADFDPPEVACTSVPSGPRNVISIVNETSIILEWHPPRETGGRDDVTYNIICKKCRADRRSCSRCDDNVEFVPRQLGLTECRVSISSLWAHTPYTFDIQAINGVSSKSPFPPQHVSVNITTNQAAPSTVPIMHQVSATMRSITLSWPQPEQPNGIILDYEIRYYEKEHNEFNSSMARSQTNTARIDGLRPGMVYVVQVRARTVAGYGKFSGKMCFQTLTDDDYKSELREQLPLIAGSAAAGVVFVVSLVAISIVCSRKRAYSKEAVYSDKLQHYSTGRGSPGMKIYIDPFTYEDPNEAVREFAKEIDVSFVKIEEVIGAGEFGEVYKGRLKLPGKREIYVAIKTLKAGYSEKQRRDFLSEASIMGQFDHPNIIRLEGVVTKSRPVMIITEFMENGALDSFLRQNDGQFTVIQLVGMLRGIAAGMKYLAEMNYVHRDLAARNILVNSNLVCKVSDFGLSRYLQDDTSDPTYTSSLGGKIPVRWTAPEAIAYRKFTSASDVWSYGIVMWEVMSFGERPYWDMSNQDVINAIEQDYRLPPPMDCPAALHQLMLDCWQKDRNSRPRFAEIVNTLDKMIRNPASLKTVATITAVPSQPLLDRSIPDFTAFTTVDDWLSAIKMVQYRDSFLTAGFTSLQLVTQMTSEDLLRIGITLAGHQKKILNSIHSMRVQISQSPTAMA
Nature of the experiment: Selectivity interaction (KinomeScan (DiscoverX)) EUB0001619a EPHB1. To be noted: at 1 µM.

Proto-oncogene tyrosine-protein kinase Src, sequence (P12931 2-536 limits assumed): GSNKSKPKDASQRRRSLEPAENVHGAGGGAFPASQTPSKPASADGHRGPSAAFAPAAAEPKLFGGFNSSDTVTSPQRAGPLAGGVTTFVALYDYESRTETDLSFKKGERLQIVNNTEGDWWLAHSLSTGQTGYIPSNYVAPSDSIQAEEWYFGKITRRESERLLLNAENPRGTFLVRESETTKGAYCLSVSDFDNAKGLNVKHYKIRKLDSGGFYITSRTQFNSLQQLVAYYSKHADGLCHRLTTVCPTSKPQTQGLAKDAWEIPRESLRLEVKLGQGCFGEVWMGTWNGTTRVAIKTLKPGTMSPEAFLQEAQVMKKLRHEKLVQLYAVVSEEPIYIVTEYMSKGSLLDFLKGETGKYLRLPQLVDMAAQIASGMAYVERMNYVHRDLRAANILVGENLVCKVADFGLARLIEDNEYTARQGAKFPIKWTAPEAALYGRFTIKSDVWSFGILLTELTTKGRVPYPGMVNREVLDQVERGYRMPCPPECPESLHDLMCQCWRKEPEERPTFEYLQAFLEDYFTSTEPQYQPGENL
Thyrotropin-releasing hormone receptor (Homo sapiens), sequence (P34981 whole entry): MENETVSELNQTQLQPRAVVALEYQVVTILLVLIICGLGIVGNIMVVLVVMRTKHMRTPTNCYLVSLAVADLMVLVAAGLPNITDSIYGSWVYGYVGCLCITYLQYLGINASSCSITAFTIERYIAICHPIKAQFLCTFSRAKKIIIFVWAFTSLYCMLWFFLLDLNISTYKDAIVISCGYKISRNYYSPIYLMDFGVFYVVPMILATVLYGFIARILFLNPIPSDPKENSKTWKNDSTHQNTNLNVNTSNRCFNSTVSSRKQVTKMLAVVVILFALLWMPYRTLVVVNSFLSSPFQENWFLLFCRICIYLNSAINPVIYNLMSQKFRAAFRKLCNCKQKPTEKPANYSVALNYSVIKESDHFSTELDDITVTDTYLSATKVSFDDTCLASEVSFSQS

Take `C=CC(=O)Nc1cccc(C(=O)Nc2ccc(Nc3cc(-c4[nH]c(SC)nc4C)ccn3)cc2)c1`: the % of control worked out at 98% in experiment [1] (at 1 µM) and 86% in experiment [1] (at 5 µM).

In experiment [2], `Cc1cc([C@@H](C)Nc2ccccc2C(=O)O)c2nc(N3CCOCC3)cc(=O)n2c1` [AZD-6482] had a % of control of 27%.

For the compound `CN(C)C/C=C/C(=O)Nc1ccc(C(=O)N2CCCC(Nc3ncc(Cl)c(-c4c[nH]c5ccccc45)n3)C2)cc1` (stereo not given), the % of control in experiment [3] turned out to be 78%.

Compound `CCC(=O)N1CCN(c2ccc(-n3c(=O)ccc4cnc5ccc(-c6cnc7ccccc7c6)cc5c43)cc2C(F)(F)F)CC1` returned a % of control in experiment [4] of 100%.

With `CC(=O)c1cc(-c2ccccc2OCC2CC2)c2ncccn12`, in experiment [5], the % of control was 94%.

On to `C=CC(=O)Nc1cc(-n2c(=O)ccc3cnc4ccc(-c5ccc(NS(C)(=O)=O)cc5)cc4c32)ccc1C`, for which the % of control worked out at 27% in experiment [6] (at 1 µM) and 4.2% in experiment [6] (at 10 µM).

For the compound `CNC(=O)Nc1ccc(-c2nc(N3CC4CCC(C3)O4)c3cnn(C4CCC5(CC4)OCCO5)c3n2)cc1`, the % of inhibition in experiment [7] was -1%.

`N#Cc1cccc(-c2c[nH]c3ncnc(N4CCOCC4)c23)c1` yielded a % of control in experiment [8] of 100%.

These data come from ChEMBL document CHEMBL5465560, “Selectivity Literature for EUbOPEN Chemogenomic Library” (2024).
